Experimental findings from patent publication US8207178B2 (priority 2007, dated 2012) are described below.

Each structure is given as a SMILES string. Like-named read-outs stand apart in the source and are kept apart here. Bounds are passed on as bounds.

Holding throughout (assay): microbe, parasite or virus in culture
What all share (format): cell-based, human immunodeficiency virus type 1 (HIV-1)

For one test, the system named is wild type HIV-1.
A further test deals with HIV-1 K103N-Y181C mutant. To be noted: Human immunodeficiency virus 1, HeLa, read-out: EC50 mutant K103N-Y181C.
For a further test, the system named is HIV-1 K103N mutant. The note with it: Human immunodeficiency virus 1, HeLa, read-out: EC50 mutant K103N.
The test system of another test is HIV-1 K103N-L100I mutant.
The subject of a further test is HIV-1 Y188L mutant. To be noted: Human immunodeficiency virus 1, HeLa, read-out: EC50 mutant Y188L.
Where [1] appears, read: Human immunodeficiency virus 1, Hela-JC53.
Where [2] appears, read: Human immunodeficiency virus 1, HeLa, read-out: EC50 mutant K103N-L100I, mutant K103N-L100I.

Take `Cc1cc(-c2cccc(C#N)n2)cc(C)c1Oc1nc(Nc2ccc(C#N)cc2)nc2ccn(C)c12` [Example 17, 6-(4-(2-(4-Cyanophenylamino)-5-methyl-5H-pyrrolo[3,2-d]pyrimidin-4-yloxy)-3,5-dimethylphenyl)picolinonitrile]: the EC50 (commonly the concentration at which the effect is half-maximal) is 1 to 10 nM in the test on wild type HIV-1 (setting [1]); above 10 nM with HIV-1 K103N-Y181C mutant; 1 to 10 nM in the test with HIV-1 K103N mutant; 1 to 10 nM in the test on HIV-1 K103N-L100I mutant (setting [2]); above 10 nM with HIV-1 Y188L mutant.

Turning to `Cc1cc(-c2ccncc2)cc(C)c1Oc1nc(Nc2ccc(C#N)cc2)nc2nc[nH]c12` [Example 29, 4-(6-(2,6-Dimethyl-4-(pyridin-4-yl)phenoxy)-7H-purin-2-ylamino)benzonitrile], the EC50 in the test on wild type HIV-1 (setting [1]) is below 1 nM; in the test with HIV-1 K103N-Y181C mutant, 1 to 10 nM; with HIV-1 K103N mutant, below 1 nM; in the test on HIV-1 K103N-L100I mutant (setting [2]), 1 to 10 nM; in the test on HIV-1 Y188L mutant it was 1 to 10 nM.

Turning to `Cc1cc(-c2ccc(C(N)=O)cc2)cc(C)c1Oc1nc(Nc2ccc(C#N)cc2)nc2ccn(C)c12` [Example 78, 4′-(2-(4-cyanophenylamino)-5-methyl-5H-pyrrolo[3,2-d]pyrimidin-4-yloxy)-3′,5′-dimethylbiphenyl-4-carboxamide], the EC50 in the test with wild type HIV-1 (setting [1]), with HIV-1 K103N-Y181C mutant, in the test on HIV-1 K103N mutant, in the test with HIV-1 K103N-L100I mutant (setting [2]) and with HIV-1 Y188L mutant was 1 to 10 nM in each case.

Regarding `Cc1cc(-c2ccncc2F)cc(C)c1Oc1nc(Nc2ccc(C#N)cc2)nc2ccn(C)c12` [Example 2, 4-(4-(4-(3-Fluoropyridin-4-yl)-2,6-dimethylphenoxy)-5-methyl-5H-pyrrolo[3,2-d]pyrimidin-2-ylamino) benzonitrile], the EC50 with wild type HIV-1 (setting [1]) is 1 to 10 nM; in the test on HIV-1 K103N-Y181C mutant, 1 to 10 nM; in the test with HIV-1 K103N mutant, 1 to 10 nM; with HIV-1 K103N-L100I mutant (setting [2]), 1 to 10 nM; in the test with HIV-1 Y188L mutant it was above 10 nM.

Turning to `Cc1cc(-c2ccc(C(N)=O)cc2)cc(C)c1Oc1nc(Nc2ccc(C#N)cc2)nc2nc[nH]c12` [Example 45, 4′-(2-(4-Cyanophenylamino)-7H-purin-6-yloxy)-3′,5′-dimethylbiphenyl-4-carboxamide], the EC50 was below 1 nM with wild type HIV-1 (setting [1]); 1 to 10 nM in the test with HIV-1 K103N-Y181C mutant; 1 to 10 nM with HIV-1 K103N mutant; 1 to 10 nM in the test with HIV-1 K103N-L100I mutant (setting [2]); 1 to 10 nM in the test with HIV-1 Y188L mutant.

As to `Cc1cnccc1-c1cc(C)c(Oc2nc(Nc3ccc(C#N)cc3)nc3ccn(C)c23)c(C)c1` [Example 7, 4-(4-(2,6-Dimethyl-4-(3-methylpyridin-4-yl)phenoxy)-5-methyl-5H-pyrrolo [3,2-d]pyrmidin-2-ylamino)benzonitrile], the EC50 in the test with wild type HIV-1 (setting [1]) is 1 to 10 nM; with HIV-1 K103N-Y181C mutant it was 1 to 10 nM; in the test with HIV-1 K103N mutant, 1 to 10 nM; in the test with HIV-1 K103N-L100I mutant (setting [2]), 1 to 10 nM; in the test on HIV-1 Y188L mutant it was above 10 nM.

Take `Cc1cc(-c2cn[nH]c2)cc(C)c1Oc1nc(Nc2ccc(C#N)cc2)nc2ccn(C)c12` [Example 24, 4-(4-(2,6-Dimethyl-4-(1H-pyrazol-4-yl)phenoxy)-5-methyl-5H-pyrrolo[3,2-d]pyrimidin-2-ylamino)-benzonitrile]: the EC50 with wild type HIV-1 (setting [1]) is below 1 nM; with HIV-1 K103N-Y181C mutant, above 10 nM; in the test on HIV-1 K103N mutant, 1 to 10 nM; in the test with HIV-1 K103N-L100I mutant (setting [2]), 1 to 10 nM; in the test with HIV-1 Y188L mutant, 1 to 10 nM.

In the case of `Cc1cc(-c2ccncc2C#N)cc(C)c1Oc1nc(Nc2ccc(C#N)cc2)nc2ccn(C)c12` [Example 5, 4-(4-(2-(4-Cyanophenylamino)-5-methyl-5H-pyrrolo[3,2-d]pyrimidin-4-yloxy)-3,5-dimethylphenyl)nicotinonitrile], the EC50 was below 1 nM with wild type HIV-1; 1 to 10 nM in the test on HIV-1 K103N-Y181C mutant; below 1 nM in the test with HIV-1 K103N mutant; below 1 nM in the test on HIV-1 K103N-L100I mutant (read-out: EC50 mutant K103N-L100I, mutant K103N-L100I); above 10 nM in the test on HIV-1 Y188L mutant.

As to `Cc1cc(-c2ccc(C(N)=O)cc2F)cc(C)c1Oc1nc(Nc2ccc(C#N)cc2)nc2ccn(C)c12` [Example 50, 4′-(2-(4-Cyanophenylamino)-5-methyl-5H-pyrrolo[3,2-d]pyrimidin-4-yloxy)-2-fluoro-3′,5′-dimethylbiphenyl-4-carboxamide], the EC50 was 1 to 10 nM in the test on wild type HIV-1 (setting [1]); 1 to 10 nM with HIV-1 K103N-Y181C mutant; 1 to 10 nM in the test on HIV-1 K103N mutant; 1 to 10 nM with HIV-1 K103N-L100I mutant (setting [2]); above 10 nM in the test on HIV-1 Y188L mutant.

For `Cc1cc(-c2ccc(S(N)(=O)=O)cc2)cc(C)c1Oc1nc(Nc2ccc(C#N)cc2)nc2ccn(C)c12` [Example 72, 4′-(2-(4-cyanophenylamino)-5-methyl-5H-pyrrolo[3,2-d]pyrimidin-4-yloxy)-3′,5′-dimethylbiphenyl-4-sulfonamide], the figures for the EC50 in the test with wild type HIV-1 (setting [1]) and with HIV-1 K103N-L100I mutant (setting [2]) were 1 to 10 nM and below 1 nM, respectively.

Regarding `Cc1cc(-c2cc(F)nc(F)c2)cc(C)c1Oc1nc(Nc2ccc(C#N)cc2)nc2ccn(C)c12` [Example 4, 4-(4-(4-(2,6-Difluoropyridin-4-yl)-2,6-dimethylphenoxy)-5-methyl-5H-pyrrolo[3,2-d]pyrimidin-2-ylamino) benzonitrile], the EC50 in the test on wild type HIV-1 (setting [1]) was 1 to 10 nM; in the test on HIV-1 K103N-L100I mutant (setting [2]), above 10 nM.

Regarding `Cc1cc(-c2ccc(C(=O)N3CCC(C#N)C3)cn2)cc(C)c1Oc1nc(Nc2ccc(C#N)cc2)nc2[nH]cnc12` (stereo not shown) [Example 127, 1-(6-(4-(2-(4-cyanophenylamino)-9H-purin-6-yloxy)-3,5-dimethylphenyl)nicotinoyl)pyrrolidine-3-carbonitrile], the EC50 with wild type HIV-1 (setting [1]) and with HIV-1 K103N-L100I mutant (setting [2]) was above 10 nM each time.

Take `Cc1cc(-c2cn[nH]c2)cc(C)c1Oc1nc(Nc2ccc(C#N)cc2)nc2c(Cl)cn(C)c12` [Example 32, 4-(7-Chloro-4-(2,6-dimethyl-4-(1H-pyrazol-4-yl)phenoxy)-5-methyl-5H-pyrrolo[3,2-d]pyrimidin-2-ylamino)benzonitrile]: the figures for the EC50 with wild type HIV-1 (setting [1]) and in the test on HIV-1 K103N-L100I mutant (setting [2]) were 1 to 10 nM and above 10 nM, respectively.

In the case of `Cc1cc(-c2ccc(S(N)(=O)=O)cc2)cc(Cl)c1Oc1nc(Nc2ccc(C#N)cc2)nc2c1ncn2C` [Example 113, 3′-chloro-4′-(2-(4-cyanophenylamino)-9-methyl-9H-purin-6-yloxy)-5′-methylbiphenyl-4-sulfonamide], the EC50 in the test with wild type HIV-1 (setting [1]) was below 1 nM; in the test on HIV-1 K103N-L100I mutant (setting [2]), 1 to 10 nM.

With `Cc1cc(-c2ccc(C(N)=O)cc2)cc(Cl)c1Oc1nc(Nc2ccc(C#N)cc2)nc2c1ncn2C` [Example 117, 3′-chloro-4′-(2-(4-cyanophenylamino)-9-methyl-9H-purin-6-yloxy)-5′-methylbiphenyl-4-carboxamide], the EC50 with wild type HIV-1 (setting [1]) was below 1 nM; in the test on HIV-1 K103N-L100I mutant (setting [2]) it was 1 to 10 nM.

As for `COc1ncc(-c2cc(C)c(Oc3nc(Nc4ccc(C#N)cc4)nc4ccn(C)c34)c(C)c2)cn1` [Example 20, 4-(4-(4-(2-Methoxypyrimidin-5-yl)-2,6-dimethylphenoxy)-5-methyl-5H-pyrrolo [3,2-d]pyrimidin-2-ylamino)benzonitrile], the EC50 is below 1 nM in the test with wild type HIV-1 (setting [1]) and 1 to 10 nM with HIV-1 K103N-L100I mutant (setting [2]).

For the compound `Cc1cc(-c2ccc3c(c2)OCCO3)cc(C)c1Oc1nc(Nc2ccc(C#N)cc2)nc2ccn(C)c12` [Example 68, 4-(4-(4-(2,3-dihydrobenzo [b][1,4]dioxin-6-yl)-2,6-dimethylbipheoxy)-5-methyl-5H-pyrrolo[3,2-d]pyrimidin-2-ylamino) benzonitrile], the EC50 in the test on wild type HIV-1 (setting [1]) is below 1 nM; in the test with HIV-1 K103N-L100I mutant (setting [2]) it was above 10 nM.
